Where two headings read alike, the source gives them in different places.

As a reminder, the melting point is the temperature, or range, at which the solid turns liquid. The inhibition is the relative decrease from the control value, in per cent. One may read the IC50 as the concentration that gives 50% inhibition.

Data set [1] deals with T1, ROCK II (Homo sapiens, UniProt O75116).
T1 construct: purchased Cycle, Nagoya, Japan CY-1160
The experiment in a line: Enzyme-based ROCK II inhibitory activity assay (ELISA, Rho kinase assay kit CY-1160). It counts as biochemical. Conditions: for inhibition at 10 µM: read-out: Inhibition of ROCKII (%); for IC50: read-out: IC50 against ROCK II. (An ELISA detects its analyte on a solid surface through an enzyme-linked reagent.)
Protocol: Enzyme-based ROCK II inhibitory activity studies
The enzyme-based ROCK II inhibitory activity assay was performed using the Rho kinase assay kit (CY-1160, Cycle, Nagoya, Japan). All operation was guided by the manufacturer’s instructions. Briefly, the compounds at 10 µM were pre-incubated in a system wherein ROCK II (0.02 ng/µL) phosphorylates the myosin-binding subunit (MBS) of kinase substrate pre-absorbed onto the microplate in the presence of Mg^2+ and ATP. Then, the system was washed after incubation at 30 ^◦C for 30 min. 100 µL of antibody was added to the wells and then incubated for 30 min at room temperature. 100 µL of substrate reagent and 100 µL stop solution were successively added to each well. The plates were read on the Viewlux in HTRF mode within 30 min.
All compounds were initially evaluated for their percentage inhibition against ROCK II with a ROCK II assay kit (CY-1160, Cycle, Japan).

For data set [2], the system named is ROCK. Set-up: method as in PMID 18638453. As to conditions: compared with its in-vitro enzyme-based ROCK II activity; cited from earlier work.
For data set [3] the following is noted: undesired pharmacokinetic properties, not suitable for non-topical administration; cited from earlier work.
[4] abbreviates: full concentration-response plots.

T1 sequence (O75116 whole entry): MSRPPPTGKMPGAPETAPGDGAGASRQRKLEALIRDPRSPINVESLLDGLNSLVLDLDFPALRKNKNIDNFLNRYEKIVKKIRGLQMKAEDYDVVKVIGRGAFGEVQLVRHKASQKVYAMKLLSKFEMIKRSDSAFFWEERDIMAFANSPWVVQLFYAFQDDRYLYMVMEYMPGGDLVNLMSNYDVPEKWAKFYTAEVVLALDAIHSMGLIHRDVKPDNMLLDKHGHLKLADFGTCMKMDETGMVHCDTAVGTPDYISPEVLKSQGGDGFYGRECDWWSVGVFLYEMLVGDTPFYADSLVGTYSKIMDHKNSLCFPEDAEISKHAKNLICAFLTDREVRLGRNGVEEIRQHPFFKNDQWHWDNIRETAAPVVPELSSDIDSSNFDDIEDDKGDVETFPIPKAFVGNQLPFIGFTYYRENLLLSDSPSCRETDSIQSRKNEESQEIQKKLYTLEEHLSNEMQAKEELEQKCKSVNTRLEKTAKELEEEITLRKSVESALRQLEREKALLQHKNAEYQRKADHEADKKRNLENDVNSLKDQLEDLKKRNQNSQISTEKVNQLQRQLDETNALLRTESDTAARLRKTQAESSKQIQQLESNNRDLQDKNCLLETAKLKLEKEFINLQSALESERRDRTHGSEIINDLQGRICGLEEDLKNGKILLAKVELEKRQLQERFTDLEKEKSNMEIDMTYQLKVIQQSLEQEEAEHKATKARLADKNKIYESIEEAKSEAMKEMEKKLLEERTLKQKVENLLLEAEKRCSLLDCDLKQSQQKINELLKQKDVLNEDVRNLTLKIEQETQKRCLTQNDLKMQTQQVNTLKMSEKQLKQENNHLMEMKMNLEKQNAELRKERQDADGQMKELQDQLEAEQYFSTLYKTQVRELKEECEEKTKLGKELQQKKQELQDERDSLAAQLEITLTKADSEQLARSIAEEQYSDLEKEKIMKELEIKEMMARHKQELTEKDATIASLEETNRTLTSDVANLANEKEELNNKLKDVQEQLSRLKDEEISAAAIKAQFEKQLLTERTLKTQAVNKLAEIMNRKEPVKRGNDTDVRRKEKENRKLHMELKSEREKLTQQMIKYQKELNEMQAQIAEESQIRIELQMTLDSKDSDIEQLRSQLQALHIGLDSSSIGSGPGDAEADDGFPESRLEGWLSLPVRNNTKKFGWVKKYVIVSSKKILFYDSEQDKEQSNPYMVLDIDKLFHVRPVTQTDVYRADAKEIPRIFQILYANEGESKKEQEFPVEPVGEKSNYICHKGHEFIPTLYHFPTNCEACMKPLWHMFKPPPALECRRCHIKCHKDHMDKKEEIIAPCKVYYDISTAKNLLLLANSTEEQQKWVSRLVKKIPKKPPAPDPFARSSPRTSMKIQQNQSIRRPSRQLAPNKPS

`Cc1ccc(C(=O)Nc2nc(-c3cccnc3)c(CN3CCOCC3)s2)cc1` [4a, 4-Methyl-N-(5-(morpholinomethyl)-4-(pyridin-3-yl)thiazol-2-yl) benzamide] yielded a melting point of 198 to 199 °C. For the same compound, the inhibition at 10 µM in data set [1] (compound concentration 10 µM) is 46.3%.

On to `Cc1ccc(C(=O)Nc2nc(-c3cccnc3)c(CN3CCN(C)CC3)s2)cc1` [4b, 4-Methyl-N-(5-((4-methylpiperazin-1-yl)methyl)-4-(pyridin-3-yl)thiazol-2-yl) benz-amide], for which the melting point is 180 to 182 °C. In addition, the inhibition at 10 µM in data set [1] (compound concentration 10 µM) stood at 32.7%.

With `Cc1ccc(C(=O)Nc2nc(-c3cccnc3)c(CN(C)C(C)C)s2)cc1` [4c, N-(5-((i-Propyl(methyl)amino)methyl)-4-(pyridin-3-yl)thiazol-2-yl)-4-methylbenzamide], the inhibition at 10 µM in data set [1] (compound concentration 10 µM) was 32.8%.

`O=C(Nc1nc(-c2cccnc2)c(CN2CCOCC2)s1)c1ccc(Cl)c(Cl)c1` [4d, 3,4-Dichloro-N-(5-(morpholinomethyl)-4-(pyridin-3-yl)thiazol-2-yl) benzamide] had a melting point of 208 to 210 °C. For the same compound, the inhibition at 10 µM in data set [1] (compound concentration 10 µM) turned out to be 42.9%.

With `CN1CCN(Cc2sc(NC(=O)c3ccc(Cl)c(Cl)c3)nc2-c2cccnc2)CC1` [4e, 3,4-Dichloro-N-(5-((4-methylpiperazin-1-yl)methyl)-4-(pyridin-3-yl)thiazol-2-yl) benzamide], the melting point lay in the range of 179 to 181 °C. In addition, the inhibition at 10 µM in data set [1] (compound concentration 10 µM) was 27.9%.

For `CC(C)N(C)Cc1sc(NC(=O)c2ccc(Cl)c(Cl)c2)nc1-c1cccnc1` [4f, 3,4-Dichloro-N-(5-((i-propyl(methyl)amino)methyl)-4-(pyridin-3-yl)thiazol-2-yl) benzamide], the melting point lay within 171 to 172 °C. In addition, in data set [1] (compound concentration 10 µM), the inhibition at 10 µM was determined as 34.6%.

For `CN1CCN(Cc2sc(NC(=O)c3ccccc3)nc2-c2cccnc2)CC1` [4g, N-(5-((4-Methylpiperazin-1-yl)methyl)-4-(pyridin-3-yl)thiazol-2-yl) benzamide], the melting point fell in the range of 198 to 199 °C. In addition, the inhibition at 10 µM in data set [1] (compound concentration 10 µM) amounted to 29.6%.

`CN(C)Cc1sc(NC(=O)c2ccncc2)nc1-c1cccnc1` [4h, N-(5-((dimethylamino)methyl)-4-(pyridin-3-yl)thiazol-2-yl) isonicotinamid] gave a melting point of 201 to 202 °C. In data set [1] (compound concentration 10 µM), the inhibition at 10 µM turned out to be 35.3%.

In turn, `O=C(Nc1nc(-c2cccnc2)c(CN2CCOCC2)s1)c1ccncc1` [4i, N-(5-(morpholinomethyl)-4-(pyridin-3-yl)thiazol-2-yl) isonicotinamide] came in with a melting point of 185 to 187 °C. In addition, in data set [1] (compound concentration 10 µM), the inhibition at 10 µM was 51.1%. For the same compound, in data set [1] (setting [4]), the half-inhibitory concentration (IC50) was found to be 9830 ± 1450 nM.

In turn, `CN(C)Cc1sc(NC(=O)C2COc3ccccc3O2)nc1-c1cccnc1` (stereo not shown) [4j, N-(5-((dimethylamino)methyl)-4-(pyridin-3-yl)thiazol-2-yl)-2,3-dihydrobenzo[b] [1,4] dioxine-2-carboxamide] yielded a melting point of 192 to 196 °C. Further, the inhibition at 10 µM in data set [1] (compound concentration 10 µM) turned out to be 68.1%. Moreover, the concentration for half-maximal inhibition (IC50) in data set [1] (setting [4]) turned out to be 960 ± 120 nM.

`O=C(Nc1nc(-c2cccnc2)c(CN2CCCC2)s1)C1COc2ccccc2O1` (stereo not shown) [4k, N-(4-(pyridin-3-yl)-5-(pyrrolidin-1-ylmethyl)thiazol-2-yl)-2,3-dihydrobenzo[b] [1,4] dioxine-2-carboxamide] yielded a melting point of 181 to 182 °C. Further, the inhibition at 10 µM in data set [1] (compound concentration 10 µM) is 61.3%. For the same compound, the IC50 in data set [1] (setting [4]) came out at 1560 ± 230 nM.

`O=C(Nc1nc(-c2cccnc2)c(CN2CCOCC2)s1)C1COc2ccccc2O1` (stereo not shown) [4l, N-(5-(morpholinomethyl)-4-(pyridin-3-yl)thiazol-2-yl)-2,3-dihydrobenzo[b] [1,4] dioxine-2-carboxamide]: the melting point was in the range of 177 to 179 °C. Further, the inhibition at 10 µM in data set [1] (compound concentration 10 µM) was found to be 73.8%. The IC50 in data set [1] (setting [4]) was determined as 1020 ± 70 nM.

In turn, `Cc1ccc(C(=O)Nc2nc(-c3ccncc3)c(CN3CCOCC3)s2)cc1` [4m, 4-Methyl-N-(5-(morpholinomethyl)-4-(pyridin-4-yl)thiazol-2-yl) benzamide] had a melting point of 148 to 149 °C. Besides, in data set [1] (compound concentration 10 µM), the inhibition at 10 µM turned out to be 48.6%.

For the compound `Cc1ccc(C(=O)Nc2nc(-c3ccncc3)c(CN3CCN(C)CC3)s2)cc1` [4n, 4-Methyl-N-(5-((4-methylpiperazin-1-yl)methyl)-4-(pyridin-4-yl)thiazol-2-yl) benzamide], the melting point was 148 to 150 °C. In addition, the inhibition at 10 µM in data set [1] (compound concentration 10 µM) is 42.4%.

In the case of `CN1CCN(Cc2sc(NC(=O)c3ccc(Cl)c(Cl)c3)nc2-c2ccncc2)CC1` [4o, 3,4-Dichloro-N-(5-((4-methylpiperazin-1-yl)methyl)-4-(pyridin-4-yl)thiazol-2-yl) benzamide], the melting point lay within 201 to 203 °C. Also, the inhibition at 10 µM in data set [1] (compound concentration 10 µM) worked out at 44.8%.

Compound `O=C(Nc1nc(-c2ccncc2)c(CN2CCOCC2)s1)c1ccc(Cl)c(Cl)c1` [4p, 3,4-Dichloro-N-(5-(morpholinomethyl)-4-(pyridin-4-yl)thiazol-2-yl) benzamide] displayed a melting point of 163 to 164 °C. Besides, the inhibition at 10 µM in data set [1] (compound concentration 10 µM) worked out at 43.5%.

`O=C(Nc1nc(-c2ccncc2)c(CN2CCCC2)s1)c1ccncc1` [4r, N-(4-(Pyridin-4-yl)-5-(pyrrolidin-1-ylmethyl)thiazol-2-yl) isonicotinamide] yielded a melting point of 192 to 195 °C. For the same compound, in data set [1] (compound concentration 10 µM), the inhibition at 10 µM came to 47.6%.

Compound `O=C(Nc1nc(-c2ccncc2)c(CN2CCOCC2)s1)c1ccncc1` [4s, N-(5-(morpholinomethyl)-4-(pyridin-4-yl)thiazol-2-yl) isonicotinamide] displayed a melting point of 175 to 178 °C. In addition, in data set [1] (compound concentration 10 µM), the inhibition at 10 µM stood at 58.1%. Further, the IC50 in data set [1] (setting [4]) amounted to 8560 nM.

Consider `O=C(Nc1nc(-c2ccncc2)c(CN2CCOCC2)s1)c1cccnc1` [4t, N-(5-(Morpholinomethyl)-4-(pyridine-4-yl)thiazol-2-yl) nicotinamide], for which the melting point was in the range of 178 to 180 °C. In data set [1] (compound concentration 10 µM), the inhibition at 10 µM turned out to be 52.2%. The IC50 in data set [1] (setting [4]) is 9120 ± 2460 nM.

`O=C(Nc1nc(-c2ccncc2)c(CN2CCCCC2)s1)c1cccnc1` [4u, N-(5-(Piperidin-1-ylmethyl)-4-(pyridin-4-yl)thiazol-2-yl) nicotinamide] gave a melting point of 169 to 171 °C. Besides, in data set [1] (compound concentration 10 µM), the inhibition at 10 µM stood at 38.1%.

In turn, `O=C(Nc1nc(-c2ccncc2)c(CN2CCOCC2)s1)C1COc2ccccc2O1` (stereo not shown) [4v, N-(5-(morpholinomethyl)-4-(pyridin-4-yl)thiazol-2-yl)-2,3-dihydrobenzo[b] [1,4] dioxine-2-carboxamide] came in with a melting point of 178 to 180 °C. Besides, the inhibition at 10 µM in data set [1] (compound concentration 10 µM) turned out to be 84.4%. For the same compound, the IC50 in data set [1] (setting [4]) is 20 nM. Besides, the IC50 in data set [1] (value stated in text in nM) stood at 20 nM.

Take `O=C(Nc1nc(-c2ccncc2)cs1)C1COc2ccccc2O1` (stereo not shown) [II, reference compound]: in data set [2], the “potency in a cell-based assay” value is “much less potent”. Further, the inhibition at 10 µM in data set [1] (compound concentration 10 µM) amounted to 91.3%. In data set [1] (setting [4]), the concentration for half-maximal inhibition (IC50) amounted to 10 ± 3 nM.

`CN(C)CCOc1cc(-c2cn[nH]c2)ccc1NC(=O)[C@H]1Cc2ccccc2CN1` [I]: in data set [3], the bioavailability entry was “low bioavailability” and the clearance entry is “high clearance”.

As for “N-(5-((4-Methylpiperazin-1-yl) methyl)-4- (pyridin-4-yl) thiazol-2-yl) isonicotinamide [4q]”, the “Inhibition of ROCKII (%)” value in data set [1] (compound concentration 10 µM) stood at 48.2%.

The record behind these values is article PMC8653655, “The Design, Synthesis and Evaluation of Rho-kinase Inhibitory Activity of 4-aryl-thiazole-2-amines” (Iranian Journal of Pharmaceutical Research : IJPR, 2021).
